According to PubChem BioAssay (NCI):
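Five concentrations, 48 hours, 96-well plates. The concentration for full growth arrest is given as TGI.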

Columns and labels:
Test in all cases: growth of human tumour cells (NCI), 48 h
SF-295 CNS = tested on: SF-295 CNS
UACC-62 melanoma = tested on: UACC-62 melanoma
SK-MEL-2 melanoma = tested on: SK-MEL-2 melanoma
MDA-N = tested on: MDA-N
HL-60(TB) leukemia = tested on: HL-60(TB) leukemia
MALME-3M melanoma = tested on: MALME-3M melanoma
RXF 393 renal = tested on: RXF 393 renal
SK-MEL-5 melanoma = tested on: SK-MEL-5 melanoma
HOP-62 NSCLC = tested on: HOP-62 NSCLC
LOX IMVI melanoma = tested on: LOX IMVI melanoma
HS 578T breast = tested on: HS 578T breast
NCI/ADR-RES ovarian = tested on: NCI/ADR-RES ovarian
EKVX NSCLC = tested on: EKVX NSCLC
IGROV1 ovarian = tested on: IGROV1 ovarian
U251 CNS = tested on: U251 CNS
TK-10 renal = tested on: TK-10 renal
786-0 renal = tested on: 786-0 renal
NCI-H460 lung = tested on: NCI-H460 lung
ACHN renal = tested on: ACHN renal
SN12C renal = tested on: SN12C renal
HCC-2998 colon = tested on: HCC-2998 colon
SK-MEL-28 melanoma = tested on: SK-MEL-28 melanoma
HT29 colon = tested on: HT29 colon
SF-268 CNS = tested on: SF-268 CNS
OVCAR-5 ovarian = tested on: OVCAR-5 ovarian
CCRF-CEM leukemia = tested on: CCRF-CEM leukemia
SW-620 colon = tested on: SW-620 colon
OVCAR-8 ovarian = tested on: OVCAR-8 ovarian
HCT-116 colon = tested on: HCT-116 colon
MDA-MB-435 = tested on: MDA-MB-435
SR leukemia = tested on: SR leukemia
KM12 colon = tested on: KM12 colon
A549 NSCLC = tested on: A549 NSCLC
SNB-19 CNS = tested on: SNB-19 CNS
PC-3 prostate = tested on: PC-3 prostate
COLO 205 colon = tested on: COLO 205 colon
NCI-H23 lung = tested on: NCI-H23 lung
HOP-92 NSCLC = tested on: HOP-92 NSCLC
MOLT-4 leukemia = tested on: MOLT-4 leukemia
BT-549 breast = tested on: BT-549 breast
SF-539 CNS = tested on: SF-539 CNS
T-47D breast = tested on: T-47D breast
OVCAR-4 ovarian = tested on: OVCAR-4 ovarian
UO-31 renal = tested on: UO-31 renal
SNB-75 CNS = tested on: SNB-75 CNS
HCT-15 colon = tested on: HCT-15 colon
DU-145 prostate = tested on: DU-145 prostate
MDA-MB-231 breast = tested on: MDA-MB-231 breast
A498 renal = tested on: A498 renal
M14 melanoma = tested on: M14 melanoma
MCF7 breast = tested on: MCF7 breast
OVCAR-3 ovarian = tested on: OVCAR-3 ovarian
NCI-H522 lung = tested on: NCI-H522 lung
NCI-H226 lung = tested on: NCI-H226 lung
UACC-257 melanoma = tested on: UACC-257 melanoma
CAKI-1 renal = tested on: CAKI-1 renal
SK-OV-3 ovarian = tested on: SK-OV-3 ovarian
RPMI-8226 leukemia = tested on: RPMI-8226 leukemia

Measured: TGI

O=C(CC(=O)N1N=C(N2CCCCC2)CC1c1ccccc1)Nc1ccccc1 (stereo not drawn)
> 100 µM: SF-295 CNS | UACC-62 melanoma | SK-MEL-2 melanoma | MDA-N | HL-60(TB) leukemia | MALME-3M melanoma | RXF 393 renal | SK-MEL-5 melanoma | HOP-62 NSCLC | LOX IMVI melanoma | HS 578T breast | NCI/ADR-RES ovarian | EKVX NSCLC | IGROV1 ovarian | U251 CNS | TK-10 renal | 786-0 renal | NCI-H460 lung | ACHN renal | SN12C renal | HCC-2998 colon | SK-MEL-28 melanoma | HT29 colon | SF-268 CNS | OVCAR-5 ovarian | CCRF-CEM leukemia | SW-620 colon | OVCAR-8 ovarian | HCT-116 colon | MDA-MB-435 | SR leukemia | KM12 colon | A549 NSCLC | SNB-19 CNS | PC-3 prostate | COLO 205 colon | NCI-H23 lung | HOP-92 NSCLC | MOLT-4 leukemia | BT-549 breast | SF-539 CNS | T-47D breast | OVCAR-4 ovarian | UO-31 renal | SNB-75 CNS | HCT-15 colon | DU-145 prostate | MDA-MB-231 breast | A498 renal | M14 melanoma | MCF7 breast | OVCAR-3 ovarian | NCI-H522 lung | NCI-H226 lung | UACC-257 melanoma | CAKI-1 renal

CC1=CC(=O)C2=C(C)CCC3C(C)C(=O)OC3C12 (stereo not drawn)
> 100 µM: SF-295 CNS | UACC-62 melanoma | SK-MEL-2 melanoma | MDA-N | HL-60(TB) leukemia | MALME-3M melanoma | RXF 393 renal | SK-MEL-5 melanoma | HOP-62 NSCLC | LOX IMVI melanoma | SK-OV-3 ovarian | HS 578T breast | NCI/ADR-RES ovarian | RPMI-8226 leukemia | EKVX NSCLC | IGROV1 ovarian | U251 CNS | TK-10 renal | 786-0 renal | NCI-H460 lung | ACHN renal | SN12C renal | HCC-2998 colon | SK-MEL-28 melanoma | HT29 colon | SF-268 CNS | OVCAR-5 ovarian | CCRF-CEM leukemia | SW-620 colon | OVCAR-8 ovarian | HCT-116 colon | MDA-MB-435 | SR leukemia | KM12 colon | A549 NSCLC | SNB-19 CNS | PC-3 prostate | COLO 205 colon | NCI-H23 lung | HOP-92 NSCLC | MOLT-4 leukemia | BT-549 breast | SF-539 CNS | T-47D breast | OVCAR-4 ovarian | UO-31 renal | HCT-15 colon | DU-145 prostate | MDA-MB-231 breast | A498 renal | M14 melanoma | MCF7 breast | OVCAR-3 ovarian | NCI-H522 lung | NCI-H226 lung | UACC-257 melanoma | CAKI-1 renal
